Several values for one entry are separate records, joined by “and”; a condition that tells them apart may be missing. Equal entries are not always repeated.
Legend:
PKR-R510Q [1] = target: T1, PKR-R510Q (Homo sapiens, UniProt P30613, R510Q); test: Luminescence Assay (Kinase Glo Plus), PKR(R510Q); format: biochemical; conditions: 100 μM PEP, 100 μM ADP, read-out: AC50 (PKRR510Q)
Description: For each tested compound, the ability to activate PKR was determined using the following Luminescence Assay. The effect of phosphorylation of adenosine-5′-diphosphate (ADP) by PKR is determined by the Kinase Glo Plus Assay (Promega) in the presence or absence of FBP (D-fructose-1,6-diphosphate; BOC Sciences, CAS: 81028-91-3) as follows. Unless otherwise indicated, all reagents are purchased from Sigma-Aldrich. All reagents are prepared in buffer containing 50 mM Tris-HCl, 100 mM KCl, 5 mM MgCl2, and 0.01% Triton X100, 0.03% BSA, and 1 mM DTT. Enzyme and PEP (phosphoenolpyruvate) are added at 2× to all wells of an assay-ready plate containing serial dilutions of test compounds or DMSO vehicle. Final enzyme concentrations for PKR(wt), PKR(R510Q), and PKR(G332S) are 0.8 nM, 0.8 nM, and 10 nM respectively. Final PEP concentration is 100 μM. The Enzyme/PEP mixture is incubated with compounds for 30 minutes at RT before the assay is initiated with the addition of 2×ADP and KinaseGloPlus. Final concentration of ADP is 100 μM. […] For assays containing FBP, that reagent is added at 30 μM upon reaction initiation. Reactions are allowed to progress for 45 minutes at RT until luminescence is recorded by the BMG PHERAstar FS Multilabel Reader. The compound is tested in triplicate at concentrations ranging from 42.5 μM to 2.2 nM in 0.83% DMSO. […]

wt-PKR [2] = target: T2, wt-PKR (Homo sapiens, UniProt P30613); test: Enzyme assay: effect on Vmax and PEP Km, wt-PKR; format: biochemical; conditions: 2 μM Compound 1; for Vmax: WT-PKR, normalized to 1.00 relative to other values in the row
Description: (§1) Tests were conducted in the presence and absence of fructose-1,6-bisphosphate (FBP), a known allosteric activator of PKR.

PKR-R510Q [3] = target: T1, PKR-R510Q; test: Enzyme assay: effect on Vmax and PEP Km, PKR-R510Q; format: biochemical; conditions: 2 μM Compound 1; for Vmax: PKR R510Q, normalized to 1.00 relative to other values in the row
Description: as §1

wt-PKR [4] = target: T2, wt-PKR; test: Enzyme assay: activation (rate of ATP formation) by different concentrations, wt-PKR; format: biochemical; conditions: PEP at or below Km
PKR-R510Q [5] = target: T1, PKR-R510Q; test: Enzyme assay: activation (rate of ATP formation) by different concentrations, PKR-R510Q; format: biochemical; conditions: PEP at or below Km
PKR = target: T3, PKR (Mus musculus, UniProt P53657); test: PKR activation in mouse red blood cells; format: cell-based; conditions: mouse RBCs
T3 construct: Mouse RBCs were isolated fresh from whole blood using a Ficoll gradient; endogenous in cells; host or cells: freshly isolated mouse red blood cells
Description: (§2) The activation of wt-PKR by Compound 1 in mature human erythrocytes ex vivo was evaluated in purified RBCs purchased from Research Blood Components. Cells treated with Compound 1 for 3 hr in glucose-containing media were washed, lysed, and assayed using a Biovision Pyruvate Kinase Assay (K709-100). The assay was repeated multiple times to account for donor-to-donor variability and the relatively narrow dynamic range.
Mouse RBCs were isolated fresh from whole blood using a Ficoll gradient and assayed with methods similar to those used in the human RBCs assays.

Balb/c mice = test: PK/PD studies in wild type Balb/c mice, oral gavage QD×7; format: in vivo
Description: Two pharmacokinetic (PK)/phamacodynamic (PD) studies were conducted in Balb/c mice that were administered Compound 1 once daily by oral gavage (formulated in 10% Cremophor EL/10% PG/80% DI water) for 7 days (QD×7) at doses of 0 (vehicle), 3.75, 7.5, 15, 30, 60 mg/kg (Study 1); 0 (vehicle), 7.5, 15, 30, 60, 120, or 240 mg/kg (Study 2). On the 7th day, whole blood was collected 24 hours after dosing and snap frozen. Samples were later thawed and analyzed by LC/MS for 2,3-DPG and ATP levels.

Berkeley SS mouse = Berkeley SS mouse model of SCD, 7 days in chow; format: in vivo; conditions: 1000 ppm in chow
Excerpt: Targeted gene deletions and a human transgene in the Berkeley SS mouse model result in mice that express human HgbS almost exclusively (Pászty C. Transgenic and gene knock-out mouse models of sickle cell anemia and the thalassemias. Curr Opin Hematol. 1997 March; 4(2):88-93) and mimic the genetic, hematologic, and histopathologic features of SCD in humans. These include irreversibly sickled RBCs, anemia, and multi-organ pathology.
The effects of Compound 1 on Hgb affinity for oxygen, percentage of sickled cells, and/or Hgb were evaluated in the Berkley SS mouse. Two studies were conducted where mice received 0 or 1000 ppm Compound 1 ad libitum in mouse chow for 7 days. Blood was drawn on Day 7 and analyzed under hypoxic conditions. Red cell parameters were measured by ADVIA.

healthy volunteers [6] = test: Phase 1 single ascending dose (SAD) cohorts; format: in vivo, human
Excerpt: (§3) This is a first-in-human (FIH), Phase 1 study of Compound 1 that will characterize the safety, PK, and PD of Compound 1 after a single dose and after repeated dosing first in healthy adult volunteers and then in adolescents or adults with sickle cell disease. Initially, a dose range of Compound 1 in single ascending dose (SAD) escalation cohorts will be explored in healthy subjects. Enrollment of healthy subjects into 2-week multiple ascending dose (MAD) escalation cohorts will be initiated once the safety and PK from at least two SAD cohorts is available to inform the doses for the 2-week MAD portion of the study. The MAD cohorts will then run in parallel to the single dose cohorts. A single dose cohort is planned to understand food effects (FE) on the PK of Compound 1. […] Multiple dose studies in SCD subjects will then be initiated upon completion of MAD studies in healthy volunteers. Compound 1 will be administered in 25 mg and 100 mg tablets delivered orally.
(§4) Four healthy SAD cohorts were evaluated at doses of 200, 400, 700, and 1000 mg, and four healthy MAD cohorts received 200 to 600 mg total daily doses for 14 days at QD or BID dosing (100 mg BID, 200 mg BID, 300 mg BID, and 400 mg QD). In the food effect (FE) cohort, 10 healthy subjects received 200 mg of Compound 1 QD with and without food.
In the SAD cohorts, the subjects' blood 2,3-DPG levels were measured periodically after dosing by a qualified LC-MS/MS method for the quantitation of 2,3-DPG in blood. Decreased 2,3-DPG blood levels were observed 6 hours following a single dose of Compound 1 at all dose levels (earlier timepoints were not collected). Maximum decreases in 2,3-DPG levels generally occurred ˜24 hours after the first dose with the reduction sustained ˜48-72 hr postdose. Table 14 reports the median percentage change in 2,3-DPG blood levels, relative to baseline, measured over time in healthy volunteers after a single dose of Compound 1 (200 mg, 400 mg, 700 mg, or 1000 mg) or placebo. Accordingly, the median reduction in the concentration of 2,3-DPG, relative to baseline, was at least about 30% at all dose levels tested 24 hours after administration of the single dose.
In the SAD cohorts, the subjects' P50 (PO2 at 50% hemoglobin saturation) were determined 24-hours post-dose. P50 measured 24 hours after a single dose of Compound 1 were reduced at all dose levels tested (median reduction ranged from ˜3-5 mmHg). Table 15 reports the mean absolute change in P50, relative to baseline, measured 24 hours after a single dose of Compound 1 (200 mg, 400 mg, 700 mg, or 1000 mg) or placebo in healthy volunteers.
(§5) The following procedures are employed for the analysis of ATP and 2,3-DPG in human whole blood K2EDTA using a protein precipitation extraction procedure and analysis by LC-MS/MS.

healthy volunteers [7] = test: Phase 1 multiple ascending dose (MAD) cohorts, 14 days; format: in vivo, human
Excerpt: as §3, §4
In the MAD cohorts, the subjects' blood 2,3-DPG levels were measured periodically after dosing by a qualified LC-MS/MS method for the quantitation of 2,3-DPG in blood. The maximum decrease in 2,3-DPG on Day 14 was 55% from baseline (median). […] Table 16 reports the median percentage change in 2,3-DPG blood levels, relative to baseline, measured over time after the first dose on days 1 and 14 in healthy volunteers who received daily doses of Compound 1 (100 mg BID, 200 mg BID, or 300 mg BID) or placebo for 14 days. Accordingly, the median reduction in the concentration of 2,3-DPG, relative to baseline, was at least about 25% at all dose levels tested 24 hours after administration of the first dose on day 1 and at least about 40% at all dose levels tested 24 hours after administration of the first dose on day 14.
In the MAD cohorts, the subjects' P50 (PO2 at 50% hemoglobin saturation) were determined on day 14. P50 values measured after 14 days of twice daily dosing were reduced at all dose levels tested (median reduction ranged from −3-5 mmHg). Table 17 reports the mean absolute change in P50, relative to baseline, measured on day 14 in healthy volunteers who received daily doses of Compound 1 (100 mg BID, 200 mg BID, or 300 mg BID) or placebo for 14 days.
In the MAD cohorts, the subjects' blood ATP levels were measured on day 14 by a qualified LC-MS/MS method for the quantitation of ATP in blood. […] Table 18 reports the median percentage change in blood ATP levels, relative to baseline, measured over time after the first dose on day 14 in healthy volunteers who received daily doses of Compound 1 (100 mg BID, or 200 mg BID) or placebo for 14 days.
as §5

wt-PKR [8] = target: T2, wt-PKR; test: PKR activation in mature human erythrocytes ex vivo (Biovision Pyruvate Kinase Assay); format: cell-based; design: evaluated in purified RBCs purchased from Research Blood Components; host or cells: purified mature human erythrocytes from donors; conditions: human RBCs, 3 hr treatment
Description: as §2

[9] = SAD, all doses and timepoints, N = 24
[10] = MAD, all doses and timepoints, N = 36

T2 sequence (P30613 whole entry): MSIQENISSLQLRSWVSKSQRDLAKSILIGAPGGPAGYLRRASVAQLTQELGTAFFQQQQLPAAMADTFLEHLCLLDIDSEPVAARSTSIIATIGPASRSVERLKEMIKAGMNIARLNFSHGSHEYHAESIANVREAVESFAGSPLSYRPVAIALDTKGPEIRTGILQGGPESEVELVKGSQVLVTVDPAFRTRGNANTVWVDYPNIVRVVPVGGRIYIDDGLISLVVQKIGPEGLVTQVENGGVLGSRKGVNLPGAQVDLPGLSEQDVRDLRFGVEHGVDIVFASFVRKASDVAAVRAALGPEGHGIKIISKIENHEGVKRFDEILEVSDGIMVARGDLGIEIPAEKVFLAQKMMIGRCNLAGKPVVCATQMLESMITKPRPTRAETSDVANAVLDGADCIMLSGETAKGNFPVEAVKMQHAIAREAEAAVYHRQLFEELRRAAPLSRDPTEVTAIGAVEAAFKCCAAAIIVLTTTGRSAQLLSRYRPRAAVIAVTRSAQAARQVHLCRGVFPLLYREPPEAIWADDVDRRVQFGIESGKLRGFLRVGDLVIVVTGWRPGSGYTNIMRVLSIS
T3 sequence (P53657 whole entry): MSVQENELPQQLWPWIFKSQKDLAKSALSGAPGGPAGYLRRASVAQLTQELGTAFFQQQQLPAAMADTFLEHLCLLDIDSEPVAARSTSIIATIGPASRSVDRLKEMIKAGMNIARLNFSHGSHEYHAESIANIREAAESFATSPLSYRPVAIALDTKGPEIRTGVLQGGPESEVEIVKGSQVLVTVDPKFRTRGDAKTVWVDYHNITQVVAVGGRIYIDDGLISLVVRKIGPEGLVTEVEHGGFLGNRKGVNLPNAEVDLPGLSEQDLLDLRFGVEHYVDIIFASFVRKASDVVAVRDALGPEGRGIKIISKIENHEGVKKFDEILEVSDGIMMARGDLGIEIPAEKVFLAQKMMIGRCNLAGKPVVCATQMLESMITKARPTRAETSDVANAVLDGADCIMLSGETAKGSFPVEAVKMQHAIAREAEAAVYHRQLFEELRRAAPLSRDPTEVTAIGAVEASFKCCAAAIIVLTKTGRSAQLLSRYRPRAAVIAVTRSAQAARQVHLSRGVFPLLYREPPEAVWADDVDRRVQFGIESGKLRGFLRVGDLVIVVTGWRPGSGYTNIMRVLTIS
T1 sequence (P30613 whole entry R510Q): as the sequence (P30613 whole entry) above, with R510Q counted along it

`O=C([C@H](CO)c1ccccc1)N1CC2=C(C1)CN(S(=O)(=O)c1cnc3c(c1)OCCO3)C2` (single isomer, unassigned) [Compound 1] gave an AC50 (PKR-R510Q [1]) of at most 100 nM, a Vmax (wt-PKR [2]; 30 μM FBP) of 1.16 and a Vmax (wt-PKR [2]; No FBP) of 1.14. The “Effect on Vmax” value (wt-PKR [2]; wt-PKR) was “no effect to a modest increase”, the “Reduction of PEP Km” value (wt-PKR [2]; wt-PKR, presence or absence of FBP) was about 2 fold and the Vmax (PKR-R510Q [3]; 30 μM FBP) was 1.29. For the same compound, the Vmax (PKR-R510Q [3]; No FBP) was 1.56, the “Effect on Vmax” value (PKR-R510Q [3]; PKR-R510Q) was “no effect to a modest increase” and the “Reduction of PEP Km” value (PKR-R510Q [3]; PKR-R510Q, presence or absence of FBP) was about 2 fold. For the same compound, the “Maximum-fold Activation” value (wt-PKR [4]) was under 2.0 fold, the “Maximum-fold Activation” value (PKR-R510Q [5]) was under 3.0 fold and the “Max − Min (%), Mean” value (PKR; mean of replicates) was under 100%. The “Max − Min (%)” value (PKR; single replicates) was <50% and <100%, the Exposure versus dose (Balb/c mice; mice, oral) was “increased in a dose-proportional manner” and the Adverse clinical signs (Balb/c mice; oral QD×7, both studies) was “No adverse clinical signs were observed”. The Body weight change (Balb/c mice; oral QD×7, both studies) was “no differences in body weight change compared with the vehicle group”, the Tolerability (Balb/c mice; oral QD×7, up to 240 mg/kg, both studies) was “well tolerated up to the highest dose tested” and the Level of reticulocytes (Berkeley SS mouse) was “reduced”. The “Oxygen affinity to Hgb under hypoxic conditions” value (Berkeley SS mouse) was “increased”, the “Percentage of RBCs that sickled at low oxygen pressures” value (Berkeley SS mouse) was “decreased” and the Time to sickle (Berkeley SS mouse) was “increased”. The P50 (Berkeley SS mouse; hypoxic conditions) was “decreased”, the “Time of maximum decrease in 2,3-DPG levels after the first dose” value (healthy volunteers [6]; SAD cohorts) was about 24 h and the “Serious adverse events / AEs leading to withdrawal” value (healthy volunteers [6]; SAD cohorts 200-1000 mg) was “No serious adverse events (SAEs) or AEs leading to withdrawal were reported”. The “2,3-DPG, Mean Maximum Percent Change from Baseline” value (healthy volunteers [6]; [9]) was −46.8%, the “ATP, Mean Maximum Percent Change from Baseline” value (healthy volunteers [6]; [9]) was 24.4% and the “Median reduction in the concentration of 2,3-DPG relative to baseline” value (healthy volunteers [6]; all dose levels, 24 hours after single dose) was “at least 30%”. For the same compound, the “Single dose exposure versus dose” value (healthy volunteers [6]; doses ≥700 mg) was “increased in greater than dose-proportional manner”, the “Time of pharmacodynamic maximum (minimum of 2,3-DPG concentration)” value (healthy volunteers [6]; single dose 400 mg) was about 24 h and the “Time of pharmacokinetic maximum (maximum of the PK curve)” value (healthy volunteers [6]; single dose 400 mg) was 1 to 2 h. For the same compound, the “PK linearity, multiple doses” value (healthy volunteers [7]; 100-300 mg BID, 400 mg QD) was “linear PK was observed across all dose levels”, the “Serious adverse events / AEs leading to withdrawal” value (healthy volunteers [7]; MAD cohorts 200-600 mg total daily, 14 days) was “No serious adverse events (SAEs) or AEs leading to withdrawal were reported” and the “2,3-DPG, Mean Maximum Percent Change from Baseline” value (healthy volunteers [7]; [10]) was −56.3%. For the same compound, the “ATP, Mean Maximum Percent Change from Baseline” value (healthy volunteers [7]; [10]) was 68.5%, the “Median reduction of P50” value (healthy volunteers [7]; after 14 days of twice daily dosing, all dose levels) was −3-5 mmHg and the “Blood ATP levels relative to baseline” value (healthy volunteers [7]; day 14, remained so 60 hours after the last dose) was “elevated”. For the same compound, the “Exposure over time, multiple doses” value (healthy volunteers [7]; up to day 14) was “remained steady up to day 14, without cumulative effect”, the EC50 (wt-PKR [8]; mean of replicates) was under 125 nM and the “Max − Min (%)” value (wt-PKR [8]; single replicates) was <125% and <150% and <100% and <50%.

Reference: patent US12053458B2, “Treating sickle cell disease with a pyruvate kinase R activating compound” (Novo Nordisk Health Care AG, priority 2018, dated 2024)
